Holding throughout (type): biochemical
The target of one assay is T1, Human Cathepsin K (Homo sapiens, UniProt P43235).
T1 construct: Dr. Boris Turk (Josef Stefan Institute, Ljubljana, Slovenia)
T1 sequence (P43235 115-329): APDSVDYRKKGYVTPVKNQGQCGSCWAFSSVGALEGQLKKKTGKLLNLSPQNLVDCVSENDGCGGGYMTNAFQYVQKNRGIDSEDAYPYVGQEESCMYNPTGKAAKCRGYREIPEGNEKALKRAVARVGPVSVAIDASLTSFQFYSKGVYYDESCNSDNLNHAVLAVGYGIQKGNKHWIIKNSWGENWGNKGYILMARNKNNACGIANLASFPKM
As to the kind of experiment: Cathepsin peptidase activity assay, human cathepsin K (Ki). Particulars: pH 5.5, 25±1° C. Here is the method: (§1) Assay protocols were based on literature precedent (Tablel; Barrett, A. J., Rawlings, N. D. and Woessner, J. F., 1998, Handbook of Proteolytic Enzymes, Academic Press, London and references therein) and modified as required to suit local assay protocols. Enzyme was added as required to initiate the reaction and the activity, as judged by the change in fluorescence upon conversion of substrate to product, was monitored over time. All assays were carried out at 25±1° C.
(§2) Bovine cathepsin S, human cathepsin L, human cathepsin H and human cathepsin B were obtained from CN Biosciences. Recombinant human cathepsin S, human cathepsin K and human cathepsin X were obtained from Dr. Boris Turk (Josef Stefan Institute, Ljubljana, Slovenia). Unless otherwise stated, all peptidase activity assays were carried out in 10 mM bis-tris-propane (BTP), pH 6.5 containing 1 mM EDTA, 5 mM 2-mercaptoethanol and 1 mM CaCl2. Human cathepsin H activity assays were carried out in 10 mM BTP pH 6.5, 142 mM […], 1 mM CaCl2, 1 mM EDTA, 1 mM DTT, 0.035 mM Zwittergent 3-16. Human cathepsin K assays were carried out in 100 mM sodium acetate; pH 5.5 containing 20 mM L-cysteine and 1 mM EDTA (Bossard, M. J., et. al., J. Biol. Chem., 21, 12517-12524, 1996). Human cathepsin X assays were carried out in 100 mM sodium acetate; pH 5.5 containing 20 mM L-cysteine; 0.05% (w/v) Brij 35 and 1 mM EDTA (Santamaria, I., et. al., J. Biol. Chem., 273, 16816-16823, 1998; Klemencic, J, et al., Eur. J. Biochem., 267, 5404-5412, 2000). […] The rate of conversion of substrate to product was derived from the slope of the increase in fluorescence monitored continuously over time.
(§3) The apparent inhibition constant (Ki) for each compound was determined on the basis that inhibition was reversible and occurred by a pure-competitive mechanism. The Ki values were calculated, from the dependence of enzyme activity as a function of inhibitor concentration, by direct regression analysis (Prism v 3.02) using Equation 2 (Cornish-Bowden, A., 1995.).
(§4) In situations where the apparent dissociation constant (Ki^app) approached the enzyme concentrations, the Ki^app values were calculated using a quadratic solution in the form described by Equation 3 (Morrison, J. F. Trends Biochem. Sci., 7, 102-105, 1982; Morrison, J. F. Biochim. Biophys. Acta, 185, 269-286, 1969; Stone, S. R. and Hofsteenge, J. Biochemistry, 25, 4622-4628, 1986).

A further assay addresses T2, Bovine Cathepsin S (Bos taurus, UniProt P25326).
T2 construct: purchased CN Biosciences
Nature of the assay: Cathepsin peptidase activity assay, bovine cathepsin S (Ki). The following applies: boc-Val-Leu-Lys-AMC, pH 6.5, 25±1° C. Here is the method:
as §1, §2, §3, §4

The target in a further assay is T3, Cruzipain (Trypanosoma cruzi, UniProt P25779).
T3 construct: Wild-type cruzipain, derived from Trypanosoma cruzi Dm28 epimastigotes; tissue Dr. Julio Scharfstein (Instituto de Biofisica Carlos Chagas Filho); host or cells: Trypanosoma cruzi Dm28 epimastigotes
As to the kind of experiment: Trypanosoma cruzi cruzipain peptidase activity assay (Ki). The following applies: wild-type cruzipain from Trypanosoma cruzi Dm28 epimastigotes, pH 6.75, 25±1° C. Here is the method: as §1
Wild-type cruzipain, derived from Trypanosoma cruzi Dm28 epimastigotes, was obtained from Dr. Julio Scharfstein (Instituto de Biofisica Carlos Chagas Filho, Universidade Federal do R^10 de Janeiro, R^10 de Janeiro, Brazil). Activity assays were carried out in 100 mM sodium phosphate, pH 6.75 containing 1 mM EDTA and 10 mM Loysteine using 2.5 nM enzyme. Ac-Phe-Arg-AMC (KM^app≈12 μM) and D-Val-Leu-Lys-AMC (KM^app≈4 μM) were used as the substrates. Routinely, Ac-FR-AMC was used at a concentration equivalent to KM^app and D-Val-Leu-Lys-AMC was used at a concentration of 25 μM. The rate of conversion of substrate to product was derived from the slope of the increase in fluorescence monitored continuously over time.
as §3, §4

The next assay concerns the target T4, Human Cathepsin L (Homo sapiens, UniProt P07711).
T4 construct: purchased CN Biosciences
As to the kind of experiment: Cathepsin peptidase activity assay, human cathepsin L (Ki). Particulars: Ac-Phe-Arg-AMC, pH 6.5, 25±1° C. Here is the method: as §1, §2, §3, §4

The text below walks through data of US7425562B2, “Inhibitors of cruzipain and other cysteine proteases” (Amura Therapeutics Ltd., priority 2001, dated 2008).

Each structure is given as a SMILES string.

T2 sequence (P25326 115-331): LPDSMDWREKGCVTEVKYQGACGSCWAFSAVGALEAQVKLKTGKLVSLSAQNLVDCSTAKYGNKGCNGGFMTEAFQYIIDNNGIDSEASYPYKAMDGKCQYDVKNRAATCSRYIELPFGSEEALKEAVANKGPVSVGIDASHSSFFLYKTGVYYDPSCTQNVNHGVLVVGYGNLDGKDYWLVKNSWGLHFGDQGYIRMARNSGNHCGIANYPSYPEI
T4 sequence (P07711 114-333): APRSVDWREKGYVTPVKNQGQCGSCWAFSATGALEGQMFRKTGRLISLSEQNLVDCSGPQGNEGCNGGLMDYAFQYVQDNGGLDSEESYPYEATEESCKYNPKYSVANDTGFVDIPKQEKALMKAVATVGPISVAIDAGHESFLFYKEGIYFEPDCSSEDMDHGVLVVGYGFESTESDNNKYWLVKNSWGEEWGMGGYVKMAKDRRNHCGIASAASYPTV
T3 sequence (P25779 123-467): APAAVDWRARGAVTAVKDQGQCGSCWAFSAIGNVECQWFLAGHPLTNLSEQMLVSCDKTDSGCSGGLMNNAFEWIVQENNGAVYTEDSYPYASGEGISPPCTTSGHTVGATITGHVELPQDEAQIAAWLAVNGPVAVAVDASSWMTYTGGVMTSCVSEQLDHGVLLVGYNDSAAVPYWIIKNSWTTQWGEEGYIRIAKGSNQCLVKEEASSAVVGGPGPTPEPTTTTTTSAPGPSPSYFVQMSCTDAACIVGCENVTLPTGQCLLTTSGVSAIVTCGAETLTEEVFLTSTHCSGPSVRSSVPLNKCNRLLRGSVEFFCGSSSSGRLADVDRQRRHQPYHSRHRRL

By Ki is commonly meant a measure of affinity in units of concentration, obtained from inhibition or displacement. The low end stands for higher affinity, the high end for lower affinity. With `CC(C)(C)c1ccc(C(=O)N[C@@H](Cc2ccc(O)cc2)C(=O)N2CC[C@H]3OCC(=O)[C@H]32)cc1` [Example 3, (3aS, 6aR) 4-tert-Butyl-N-[1S-(4-hydroxybenzyl)-2-oxo-2-(3-oxo-hexahydrofuro[3,2-b]pyrrol-4-yl)ethyl]benzamide], the Ki on Human Cathepsin K is above 5 µM; on Bovine Cathepsin S, above 100 µM; on Cruzipain, 0.2 µM; at Human Cathepsin L, above 35 µM.

As for `CC(C)C[C@H](NC(=O)c1ccc(Oc2ccccc2)cc1)C(=O)N1CC[C@H]2OCC(=O)[C@H]21` [Example 10, (3aS, 6aR) N-[3-methyl-1S-(3-oxo-hexahydrofuro[3,2-b]pyrrole-4-carbonyl)butyl]-4-phenoxybenzamide], the Ki at Human Cathepsin K is 0.1 µM; on Bovine Cathepsin S it was above 10 µM; at Cruzipain it was above 5 µM; on Human Cathepsin L, above 25 µM.

Regarding `O=C(N[C@@H](CSCc1ccccc1)C(=O)N1CC[C@H]2OCC(=O)[C@H]21)c1ccoc1` [Example 48, (3aS, 6aR) Furan-3-carboxylic Acid [1R-benzylsulfanylmethyl-2-oxo-2-(3-oxo-hexahydrofuro[3,2-b]pyrrol-4-yl)ethyl]amide], the inhibition constant Ki at Human Cathepsin K is above 10 µM; at Bovine Cathepsin S it was 0.3 µM; on Cruzipain, above 25 µM; on Human Cathepsin L, above 100 µM.

Regarding `O=C(N[C@@H](Cc1ccc(O)cc1)C(=O)N1CC[C@H]2OCC(=O)[C@H]21)c1cccc2ccccc12` [Example 69, (3aS, 6aR) Naphthalene-1-carboxylic Acid [1S-(4-hydroxybenzyl)-2-oxo-2-(3-oxo-hexahydrofuro[3,2-b]pyrrol-4-yl)ethyl]amide], the Ki on Human Cathepsin K is above 100 µM; at Bovine Cathepsin S, above 10 µM; on Cruzipain, above 5 µM; at Human Cathepsin L, 0.8 µM.
